What was measured:
[1] = system: THP-1 and REH versus 2-Cl-ATP-sensitive KMT2A-r cells; assay: Resazurin-based viability assays of nucleoside analogs in leukemia cell line panel; design: species or system human
Description: (§1) The cytotoxicity of drugs was assessed through resazurin-based assays and the inhibitory concentration resulting in 50% reduction of cell survival relative to control (IC50) was calculated as previously described ([7]). In synergy studies, cells were exposed to a dilution series of compounds, as single agents or in combination, in resazurin-based assays (72 hours) as described ([8]–[10]). The occurrence of synergy was determined with the Bliss Independence model as previously described ([8]–[10]). Bliss Prediction curves indicated the predicted percentage viability of the cells when exposed to the combination of compounds if both compounds work additively together. Synergy was visualised as the presence of a lower cell viability upon combination of two compounds compared to the viability predicted based on the presence of an additive effect of the compounds (i.e., the viability curve of the combination runs below the Bliss Prediction curve). The percentage of apoptotic cells was assessed by annexin V and 7-Aminoactinomycin D (7-AAD) (BD Biosciences, Australia) flow cytometry as previously described ([7]).

PER-485 cells = assay: 72-hour resazurin-based cytotoxicity assay, PER-485; format: cell-based, human; settings: PER-485, KMT2A-r t(4;11), infant ALL derived
Description: All cell lines used in this study were mycoplasma-free and have been authenticated using STR profiling. Cells were cultured as previously described ([7], [8]). Characteristics of the leukemia cell lines used in this study are described in Supplementary Table 1 . Peripheral blood mononuclear cells from healthy donors were purchased from Australian Red Cross.
as §1

Row | Compound | response of 2-Cl-ATP-resistant cell lines THP-1 and REH compared with 2-Cl-ATP-sensitive KMT2A-r cells [1] | IC50 (PER-485 cells)
1 | Nc1nc(Cl)nc2c1ncn2[C@@H]1O[C@H](CO)[C@@H](O)[C@H]1O [2-CADO, 2-chloroadenosine] | less responsive | –
2 | Nc1nc(Cl)nc2c1ncn2[C@H]1C[C@H](O)[C@@H](CO)O1 [cladribine] | less responsive | –
3 | O=C(O)c1cc2c(cn1)[nH]c1ccccc12 [β-CCB, β-carboline-3-carboxylate] | – | 2600 nM

— paper PMC8811472, “Systematic In Vitro Evaluation of a Library of Approved and Pharmacologically Active Compounds for the Identification of Novel Candidate Drugs for KMT2A-Rearranged Leukemia” (Frontiers in Oncology, 2022)
